Test results as given in PubChem BioAssay (NCI).
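Values below derive from 48-hour exposures of cells grown in 96-well plates, with endpoints linearly interpolated between the two concentrations bracketing the appropriate inhibition level. Definition used: TGI = concentration required for complete inhibition of growth.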

Legend:
Assay in all cases: NCI-60 cell line screen, 48 h
ACHN renal = tested on: ACHN renal
OVCAR-8 ovarian = tested on: OVCAR-8 ovarian
HT29 colon = tested on: HT29 colon
UO-31 renal = tested on: UO-31 renal
SK-MEL-2 melanoma = tested on: SK-MEL-2 melanoma
CAKI-1 renal = tested on: CAKI-1 renal
SF-539 CNS = tested on: SF-539 CNS
HCC-2998 colon = tested on: HCC-2998 colon
EKVX NSCLC = tested on: EKVX NSCLC
MDA-N = tested on: MDA-N
UACC-62 melanoma = tested on: UACC-62 melanoma
NCI-H226 lung = tested on: NCI-H226 lung
NCI-H460 lung = tested on: NCI-H460 lung
A549 NSCLC = tested on: A549 NSCLC
U251 CNS = tested on: U251 CNS
SW-620 colon = tested on: SW-620 colon
SNB-19 CNS = tested on: SNB-19 CNS
HCT-15 colon = tested on: HCT-15 colon
SK-MEL-5 melanoma = tested on: SK-MEL-5 melanoma
KM12 colon = tested on: KM12 colon
HCT-116 colon = tested on: HCT-116 colon
NCI/ADR-RES ovarian = tested on: NCI/ADR-RES ovarian
MDA-MB-231 breast = tested on: MDA-MB-231 breast
SK-OV-3 ovarian = tested on: SK-OV-3 ovarian
A498 renal = tested on: A498 renal
PC-3 prostate = tested on: PC-3 prostate
MALME-3M melanoma = tested on: MALME-3M melanoma
RXF 393 renal = tested on: RXF 393 renal
COLO 205 colon = tested on: COLO 205 colon
SK-MEL-28 melanoma = tested on: SK-MEL-28 melanoma
K-562 leukemia = tested on: K-562 leukemia
HOP-92 NSCLC = tested on: HOP-92 NSCLC
786-0 renal = tested on: 786-0 renal
HOP-62 NSCLC = tested on: HOP-62 NSCLC
NCI-H23 lung = tested on: NCI-H23 lung
SNB-75 CNS = tested on: SNB-75 CNS
SN12C renal = tested on: SN12C renal
BT-549 breast = tested on: BT-549 breast
OVCAR-5 ovarian = tested on: OVCAR-5 ovarian
M14 melanoma = tested on: M14 melanoma
LOX IMVI melanoma = tested on: LOX IMVI melanoma
MCF7 breast = tested on: MCF7 breast
UACC-257 melanoma = tested on: UACC-257 melanoma
SF-295 CNS = tested on: SF-295 CNS
HS 578T breast = tested on: HS 578T breast
TK-10 renal = tested on: TK-10 renal
OVCAR-3 ovarian = tested on: OVCAR-3 ovarian
OVCAR-4 ovarian = tested on: OVCAR-4 ovarian
IGROV1 ovarian = tested on: IGROV1 ovarian
NCI-H522 lung = tested on: NCI-H522 lung
T-47D breast = tested on: T-47D breast
SR leukemia = tested on: SR leukemia
MOLT-4 leukemia = tested on: MOLT-4 leukemia
SF-268 CNS = tested on: SF-268 CNS
DU-145 prostate = tested on: DU-145 prostate
MDA-MB-435 = tested on: MDA-MB-435
CCRF-CEM leukemia = tested on: CCRF-CEM leukemia
HL-60(TB) leukemia = tested on: HL-60(TB) leukemia
RPMI-8226 leukemia = tested on: RPMI-8226 leukemia

COC(=O)[C@@H]1[C@H](O)CCC2=C(CC(=O)c3ccoc3)[C@H](C)CC[C@]21C
TGI (ACHN renal): > 50 µM
TGI (OVCAR-8 ovarian): > 50 µM
TGI (HT29 colon): > 50 µM
TGI (UO-31 renal): > 50 µM
TGI (SK-MEL-2 melanoma): > 50 µM
TGI (CAKI-1 renal): > 50 µM
TGI (SF-539 CNS): > 50 µM
TGI (HCC-2998 colon): > 50 µM
TGI (EKVX NSCLC): > 50 µM
TGI (MDA-N): > 50 µM
TGI (UACC-62 melanoma): > 50 µM
TGI (NCI-H226 lung): > 50 µM
TGI (NCI-H460 lung): > 50 µM
TGI (A549 NSCLC): > 50 µM
TGI (U251 CNS): > 50 µM
TGI (SW-620 colon): > 50 µM
TGI (SNB-19 CNS): > 50 µM
TGI (HCT-15 colon): > 50 µM
TGI (SK-MEL-5 melanoma): > 50 µM
TGI (KM12 colon): > 50 µM
TGI (HCT-116 colon): > 50 µM
TGI (NCI/ADR-RES ovarian): > 50 µM
TGI (MDA-MB-231 breast): > 50 µM
TGI (SK-OV-3 ovarian): > 50 µM
TGI (A498 renal): > 50 µM
TGI (PC-3 prostate): > 50 µM
TGI (MALME-3M melanoma): > 50 µM
TGI (RXF 393 renal): > 50 µM
TGI (COLO 205 colon): > 50 µM
TGI (SK-MEL-28 melanoma): > 50 µM
TGI (K-562 leukemia): > 50 µM
TGI (HOP-92 NSCLC): > 50 µM
TGI (786-0 renal): > 50 µM
TGI (HOP-62 NSCLC): > 50 µM
TGI (NCI-H23 lung): > 50 µM
TGI (SNB-75 CNS): > 50 µM
TGI (SN12C renal): > 50 µM
TGI (BT-549 breast): > 50 µM
TGI (OVCAR-5 ovarian): > 50 µM
TGI (M14 melanoma): > 50 µM
TGI (LOX IMVI melanoma): > 50 µM
TGI (MCF7 breast): > 50 µM
TGI (UACC-257 melanoma): > 50 µM
TGI (SF-295 CNS): > 50 µM
TGI (HS 578T breast): > 50 µM
TGI (TK-10 renal): > 50 µM
TGI (OVCAR-3 ovarian): > 50 µM
TGI (OVCAR-4 ovarian): > 50 µM
TGI (IGROV1 ovarian): > 50 µM

CC1(C)Oc2ccc3c(=O)cc(-c4cccs4)oc3c2C1C(=O)O (stereo unspecified)
TGI (NCI-H522 lung): > 100 µM
TGI (OVCAR-8 ovarian): > 100 µM
TGI (HT29 colon): > 100 µM
TGI (SK-MEL-2 melanoma): > 100 µM
TGI (CAKI-1 renal): 60.4 µM
TGI (SF-539 CNS): > 100 µM
TGI (HCC-2998 colon): > 100 µM
TGI (EKVX NSCLC): > 100 µM
TGI (MDA-N): > 100 µM
TGI (NCI-H226 lung): > 100 µM
TGI (T-47D breast): > 100 µM
TGI (A549 NSCLC): > 100 µM
TGI (U251 CNS): > 100 µM
TGI (SR leukemia): > 100 µM
TGI (MOLT-4 leukemia): > 100 µM
TGI (SK-MEL-5 melanoma): > 100 µM
TGI (HCT-116 colon): > 100 µM
TGI (NCI/ADR-RES ovarian): > 100 µM
TGI (SF-268 CNS): > 100 µM
TGI (MDA-MB-231 breast): > 100 µM
TGI (SK-OV-3 ovarian): > 100 µM
TGI (DU-145 prostate): > 100 µM
TGI (A498 renal): > 100 µM
TGI (PC-3 prostate): > 100 µM
TGI (MALME-3M melanoma): > 100 µM
TGI (RXF 393 renal): > 100 µM
TGI (MDA-MB-435): > 100 µM
TGI (CCRF-CEM leukemia): > 100 µM
TGI (COLO 205 colon): > 100 µM
TGI (K-562 leukemia): > 100 µM
TGI (786-0 renal): > 100 µM
TGI (HOP-62 NSCLC): > 100 µM
TGI (NCI-H23 lung): > 100 µM
TGI (SN12C renal): > 100 µM
TGI (HL-60(TB) leukemia): > 100 µM
TGI (OVCAR-5 ovarian): > 100 µM
TGI (M14 melanoma): > 100 µM
TGI (MCF7 breast): > 100 µM
TGI (UACC-257 melanoma): > 100 µM
TGI (SF-295 CNS): > 100 µM
TGI (HS 578T breast): > 100 µM
TGI (TK-10 renal): > 100 µM
TGI (OVCAR-3 ovarian): > 100 µM
TGI (IGROV1 ovarian): > 100 µM

N/C(=N\NC(=O)c1nc2ccccc2s1)c1ccccn1
TGI (NCI-H522 lung): 44.6 µM
TGI (ACHN renal): 16.5 µM
TGI (OVCAR-8 ovarian): > 47.2 µM
TGI (HT29 colon): 50.7 µM
TGI (UO-31 renal): 15.8 µM
TGI (SK-MEL-2 melanoma): > 100 µM
TGI (SF-539 CNS): 15.6 µM
TGI (HCC-2998 colon): > 61.5 µM
TGI (EKVX NSCLC): > 63.6 µM
TGI (MDA-N): > 100 µM
TGI (UACC-62 melanoma): 19.5 µM
TGI (T-47D breast): > 100 µM
TGI (NCI-H460 lung): 17.9 µM
TGI (A549 NSCLC): > 52.7 µM
TGI (U251 CNS): > 60.9 µM
TGI (SW-620 colon): > 100 µM
TGI (SNB-19 CNS): > 100 µM
TGI (HCT-15 colon): 31.9 µM
TGI (MOLT-4 leukemia): 18.7 µM
TGI (SK-MEL-5 melanoma): 21.3 µM
TGI (KM12 colon): > 100 µM
TGI (HCT-116 colon): 19.6 µM
TGI (NCI/ADR-RES ovarian): 15.5 µM
TGI (SF-268 CNS): > 100 µM
TGI (MDA-MB-231 breast): > 100 µM
TGI (SK-OV-3 ovarian): 29.5 µM
TGI (DU-145 prostate): > 40.2 µM
TGI (A498 renal): 36.1 µM
TGI (PC-3 prostate): > 100 µM
TGI (MALME-3M melanoma): > 100 µM
TGI (RXF 393 renal): > 69 µM
TGI (RPMI-8226 leukemia): 26.8 µM
TGI (MDA-MB-435): > 37.6 µM
TGI (CCRF-CEM leukemia): > 45.6 µM
TGI (COLO 205 colon): 27.6 µM
TGI (SK-MEL-28 melanoma): > 100 µM
TGI (K-562 leukemia): > 77.8 µM
TGI (HOP-92 NSCLC): > 100 µM
TGI (786-0 renal): 22.9 µM
TGI (HOP-62 NSCLC): > 57.6 µM
TGI (NCI-H23 lung): 52.6 µM
TGI (SNB-75 CNS): > 45.1 µM
TGI (SN12C renal): 18 µM
TGI (BT-549 breast): > 100 µM
TGI (HL-60(TB) leukemia): 23.4 µM
TGI (OVCAR-5 ovarian): 65.7 µM
TGI (M14 melanoma): 23.6 µM
TGI (LOX IMVI melanoma): > 100 µM
TGI (MCF7 breast): > 63.7 µM
TGI (UACC-257 melanoma): > 79.8 µM
TGI (SF-295 CNS): > 100 µM
TGI (HS 578T breast): > 100 µM
TGI (TK-10 renal): > 100 µM
TGI (OVCAR-3 ovarian): > 100 µM
TGI (IGROV1 ovarian): > 100 µM

O=C(O)CN1CCCC(Cc2c[nH]c3ccccc23)C1 (stereo unspecified)
TGI (ACHN renal): > 100 µM
TGI (OVCAR-8 ovarian): > 100 µM
TGI (UO-31 renal): > 100 µM
TGI (SK-MEL-2 melanoma): > 100 µM
TGI (CAKI-1 renal): > 100 µM
TGI (SF-539 CNS): > 100 µM
TGI (HCC-2998 colon): > 100 µM
TGI (EKVX NSCLC): > 100 µM
TGI (MDA-N): > 100 µM
TGI (UACC-62 melanoma): > 100 µM
TGI (NCI-H226 lung): > 100 µM
TGI (A549 NSCLC): > 100 µM
TGI (SW-620 colon): > 100 µM
TGI (HCT-15 colon): > 100 µM
TGI (SK-MEL-5 melanoma): > 100 µM
TGI (KM12 colon): > 100 µM
TGI (NCI/ADR-RES ovarian): > 100 µM
TGI (SF-268 CNS): > 100 µM
TGI (MDA-MB-231 breast): > 100 µM
TGI (SK-OV-3 ovarian): > 100 µM
TGI (DU-145 prostate): > 100 µM
TGI (PC-3 prostate): > 100 µM
TGI (MALME-3M melanoma): > 100 µM
TGI (RXF 393 renal): > 100 µM
TGI (MDA-MB-435): > 100 µM
TGI (COLO 205 colon): > 100 µM
TGI (SK-MEL-28 melanoma): > 100 µM
TGI (K-562 leukemia): > 100 µM
TGI (HOP-92 NSCLC): > 100 µM
TGI (HOP-62 NSCLC): > 100 µM
TGI (NCI-H23 lung): > 100 µM
TGI (SNB-75 CNS): > 100 µM
TGI (BT-549 breast): > 100 µM
TGI (OVCAR-5 ovarian): > 100 µM
TGI (M14 melanoma): > 100 µM
TGI (LOX IMVI melanoma): > 100 µM
TGI (UACC-257 melanoma): > 100 µM
TGI (SF-295 CNS): > 100 µM
TGI (HS 578T breast): > 100 µM
TGI (TK-10 renal): > 100 µM
TGI (OVCAR-3 ovarian): > 100 µM
TGI (OVCAR-4 ovarian): > 100 µM
TGI (IGROV1 ovarian): > 100 µM
